{
  "source": "paper PMC5218480",
  "about": "(PLoS ONE, 2017)",
  "test_system": "MV-4-11 cells",
  "experiment": "Gene expression microarray analysis (Affymetrix PrimeView) and GSEA",
  "assay_type": "cell-based, human",
  "set-up": "RFU PODN (11730768_x_at) / Fold change /veh PODN (11730768_x_at) / RFU LINC00158 (11744669_a_at) / Fold change /veh LINC00158 (11744669_a_at) / RFU DUSP10 (11751237_a_at) / Fold change /veh DUSP10 (11751237_a_at) / RFU ID3 (11757404_x_at) / Fold change /veh ID3 (11757404_x_at) / RFU PLEKHG5 (11737974_s_at) / Fold change /veh PLEKHG5 (11737974_s_at) / RFU LRRC4B (11730491_at) / Fold change /veh LRRC4B (11730491_at) / RFU GIMAP4 (11747438_a_at) / Fold change /veh GIMAP4 (11747438_a_at) / RFU KRT8 (11758183_x_at) / Fold change /veh KRT8 (11758183_x_at) / RFU CNN1 (11734310_a_at) / Fold change /veh CNN1 (11734310_a_at) / RFU VPS37D (11726825_at) / Fold change /veh VPS37D (11726825_at) / RFU C10orf10 (11716522_x_at) / Fold change /veh C10orf10 (11716522_x_at) / RFU KIR2DL2 /// KIR2DL4 /// KIR2DL5A /// KIR2DL5B /// KIR2DS1 /// KIR2DS2 /// KIR2DS3 /// KIR2DS4 /// KIR3DL3 /// KIR3DL3 /// KIR3DS1 (11738374_at) / Fold change /veh KIR2DL2 /// KIR2DL4 /// KIR2DL5A /// KIR2DL5B /// KIR2DS1 /// KIR2DS2 /// KIR2DS3 /// KIR2DS4 /// KIR3DL3 /// KIR3DL3 /// KIR3DS1 (11738374_at) / RFU C1QL1 (11718748_at) / Fold change /veh C1QL1 (11718748_at) / RFU TMPRSS4 (11747572_a_at) / Fold change /veh TMPRSS4 (11747572_a_at) / RFU HAMP (11756126_x_at) / Fold change /veh HAMP (11756126_x_at) / RFU RNFT2 (11725882_a_at) / Fold change /veh RNFT2 (11725882_a_at) / RFU NR4A2 (11747474_a_at) / Fold change /veh NR4A2 (11747474_a_at) / RFU ABCC12 (11746883_a_at) / Fold change /veh ABCC12 (11746883_a_at) / RFU TMEM136 (11760407_x_at) / Fold change /veh TMEM136 (11760407_x_at) / RFU CLDN22 /// WWC2 (11732394_at) / Fold change /veh CLDN22 /// WWC2 (11732394_at) / RFU HLA-DPB1 (11760878_x_at) / Fold change /veh HLA-DPB1 (11760878_x_at) / RFU SPINT1 (11716480_a_at) / Fold change /veh SPINT1 (11716480_a_at) / RFU GAP43 (11754022_s_at) / Fold change /veh GAP43 (11754022_s_at) / RFU A4GNT (11735810_at) / Fold change /veh A4GNT (11735810_at) / RFU PRB3 (11715151_x_at) / Fold change /veh PRB3 (11715151_x_at) / RFU TUBB4B (11761932_at) / Fold change /veh TUBB4B (11761932_at) / RFU CAPN14 (11732068_a_at) / Fold change /veh CAPN14 (11732068_a_at) / RFU TMCC2 (11721928_a_at) / Fold change /veh TMCC2 (11721928_a_at) / RFU IRGQ (11745062_a_at) / Fold change /veh IRGQ (11745062_a_at) / RFU FAM174B (11720279_a_at) / Fold change /veh FAM174B (11720279_a_at) / RFU TMPRSS4 (11748680_a_at) / Fold change /veh TMPRSS4 (11748680_a_at) / RFU FAM212B (11763350_a_at) / Fold change /veh FAM212B (11763350_a_at) / RFU PLEKHG5 (11743358_a_at) / Fold change /veh PLEKHG5 (11743358_a_at) / RFU ZSCAN30 (11745921_a_at) / Fold change /veh ZSCAN30 (11745921_a_at) / RFU CMKLR1 (11741424_a_at) / Fold change /veh CMKLR1 (11741424_a_at) / RFU LOC101060620 /// MAPK8IP1 (11723275_at) / Fold change /veh LOC101060620 /// MAPK8IP1 (11723275_at) / RFU SPTSSB (11747773_x_at) / Fold change /veh SPTSSB (11747773_x_at) / RFU PRSS12 (11739890_at) / Fold change /veh PRSS12 (11739890_at) / RFU BIN1 (11741810_x_at) / Fold change /veh BIN1 (11741810_x_at) / RFU WNT11 (11732464_a_at) / Fold change /veh WNT11 (11732464_a_at) / RFU C10orf10 (11716521_a_at) / Fold change /veh C10orf10 (11716521_a_at) / RFU C5orf56 (11738089_at) / Fold change /veh C5orf56 (11738089_at) / RFU CYB561 (11721691_x_at) / Fold change /veh CYB561 (11721691_x_at) / RFU ANKRD19P (11752326_a_at) / Fold change /veh ANKRD19P (11752326_a_at) / RFU OR2T12 /// OR2T33 /// OR2T8 (11738714_s_at) / Fold change /veh OR2T12 /// OR2T33 /// OR2T8 (11738714_s_at) / RFU VCAN (11748164_a_at) / Fold change /veh VCAN (11748164_a_at) / RFU JSRP1 (11732532_at) / Fold change /veh JSRP1 (11732532_at) / RFU KRTAP10-11 (11738290_x_at) / Fold change /veh KRTAP10-11 (11738290_x_at) / RFU MYO3A (11730013_a_at) / Fold change /veh MYO3A (11730013_a_at) / RFU EBF3 (11725865_a_at) / Fold change /veh EBF3 (11725865_a_at) / RFU CAMK2N1 (11719241_x_at) / Fold change /veh CAMK2N1 (11719241_x_at) / RFU C5orf56 (11738088_a_at) / Fold change /veh C5orf56 (11738088_a_at) / RFU OLFML3 (11715873_a_at) / Fold change /veh OLFML3 (11715873_a_at) / RFU LOC100653217 /// NTM (11731650_a_at) / Fold change /veh LOC100653217 /// NTM (11731650_a_at) / RFU MAPK11 (11762145_a_at) / Fold change /veh MAPK11 (11762145_a_at) / RFU FIZ1 (11724087_x_at) / Fold change /veh FIZ1 (11724087_x_at) / RFU OASL (11726364_x_at) / Fold change /veh OASL (11726364_x_at) / RFU SOX15 (11748057_x_at) / Fold change /veh SOX15 (11748057_x_at) / RFU CD79A (11719716_a_at) / Fold change /veh CD79A (11719716_a_at) / RFU HIST1H1D (11736915_at) / Fold change /veh HIST1H1D (11736915_at) / RFU CASKIN2 (11723855_a_at) / Fold change /veh CASKIN2 (11723855_a_at) / RFU LOC730098 (11760151_x_at) / Fold change /veh LOC730098 (11760151_x_at) / RFU OR4N2 (11742367_at) / Fold change /veh OR4N2 (11742367_at) / RFU PRRT2 (11749266_a_at) / Fold change /veh PRRT2 (11749266_a_at) / RFU SNX32 (11753110_a_at) / Fold change /veh SNX32 (11753110_a_at) / RFU CDHR5 (11726645_a_at) / Fold change /veh CDHR5 (11726645_a_at) / RFU RCAN1 (11760418_a_at) / Fold change /veh RCAN1 (11760418_a_at) / RFU FAM167A (11723789_a_at) / Fold change /veh FAM167A (11723789_a_at) / RFU FAM26E (11764081_at) / Fold change /veh FAM26E (11764081_at) / RFU ISYNA1 (11749810_s_at) / Fold change /veh ISYNA1 (11749810_s_at) / RFU ACY1 (11761880_at) / Fold change /veh ACY1 (11761880_at) / RFU 11764098_at / Fold change /veh 11764098_at / RFU SAMD14 (11745864_x_at) / Fold change /veh SAMD14 (11745864_x_at) / RFU NPB (11741838_a_at) / Fold change /veh NPB (11741838_a_at) / RFU TMPRSS6 (11731388_a_at) / Fold change /veh TMPRSS6 (11731388_a_at) / RFU KRTAP10-2 (11738614_at) / Fold change /veh KRTAP10-2 (11738614_at) / RFU ARHGAP8 /// PRR5-ARHGAP8 (11727945_x_at) / Fold change /veh ARHGAP8 /// PRR5-ARHGAP8 (11727945_x_at) / RFU KRTAP5-7 /// NADSYN1 (11734609_at) / Fold change /veh KRTAP5-7 /// NADSYN1 (11734609_at) / RFU RASL12 (11751679_a_at) / Fold change /veh RASL12 (11751679_a_at) / RFU CDKN2B (11736163_a_at) / Fold change /veh CDKN2B (11736163_a_at) / RFU PRF1 (11729649_at) / Fold change /veh PRF1 (11729649_at) / RFU, ZNF638 /// ZNF638-IT1 / Fold change vs veh, ZNF638 /// ZNF638-IT1 / RFU, PANK3 / Fold change vs veh, PANK3 / RFU, SH3YL1 / Fold change vs veh, SH3YL1 / RFU, ZEB2 / Fold change vs veh, ZEB2 / RFU, NRIP1 / Fold change vs veh, NRIP1 / RFU, PTTG1IP / Fold change vs veh, PTTG1IP / RFU, CAPN2 / Fold change vs veh, CAPN2 / RFU, MED14 / Fold change vs veh, MED14 / RFU, SNORA58 / Fold change vs veh, SNORA58 / RFU, C1orf63 / Fold change vs veh, C1orf63 / RFU, LRRFIP1 / Fold change vs veh, LRRFIP1 / RFU, NDUFAF7 / Fold change vs veh, NDUFAF7 / RFU, SLC12A2 / Fold change vs veh, SLC12A2 / RFU, IBTK / Fold change vs veh, IBTK / RFU, ESF1 / Fold change vs veh, ESF1 / Fold change vs veh, TMEM50B / RFU, TAOK1 / Fold change vs veh, TAOK1 / RFU, ACBD3 / Fold change vs veh, ACBD3 / RFU, TMA16 / Fold change vs veh, TMA16 / RFU, RWDD3 / Fold change vs veh, RWDD3 / RFU, BCAT1 / Fold change vs veh, BCAT1 / RFU, EDEM3 / Fold change vs veh, EDEM3 / RFU, TMEM33 / Fold change vs veh, TMEM33 / RFU, WDR75 / Fold change vs veh, WDR75 / RFU, AHCTF1 / Fold change vs veh, AHCTF1 / RFU, TFRC / Fold change vs veh, TFRC / RFU, ZDHHC17 / Fold change vs veh, ZDHHC17 / RFU, NOM1 / Fold change vs veh, NOM1 / RFU, ARL8B / Fold change vs veh, ARL8B / RFU, ZBTB11 / Fold change vs veh, ZBTB11 / RFU, TAMM41 / Fold change vs veh, TAMM41 / RFU, KIAA1704 /// LOC100996395 / Fold change vs veh, KIAA1704 /// LOC100996395 / RFU, ING1 / Fold change vs veh, ING1 / RFU, TRMT61B / Fold change vs veh, TRMT61B / RFU, FUBP3 / Fold change vs veh, FUBP3 / RFU, TP53 / Fold change vs veh, TP53 / RFU, TNKS2 / Fold change vs veh, TNKS2 / RFU, ZFP14 / Fold change vs veh, ZFP14 / RFU, ACTR2 / Fold change vs veh, ACTR2 / RFU, PPP3R1 / Fold change vs veh, PPP3R1 / RFU, PIK3R1 / Fold change vs veh, PIK3R1 / RFU, HNRNPA1 / Fold change vs veh, HNRNPA1 / RFU, RNF170 / Fold change vs veh, RNF170 / RFU, ZNF28 / Fold change vs veh, ZNF28 / RFU, RNGTT / Fold change vs veh, RNGTT / RFU, OGT / Fold change vs veh, OGT / RFU, BRD1 / Fold change vs veh, BRD1 / RFU, MARS / Fold change vs veh, MARS / RFU, ZNF655 / Fold change vs veh, ZNF655 / RFU, FAHD1 / Fold change vs veh, FAHD1 / RFU, BDP1 / Fold change vs veh, BDP1 / RFU, LRRCC1 / Fold change vs veh, LRRCC1 / RFU, ARID1A / Fold change vs veh, ARID1A / RFU, ZNF146 / Fold change vs veh, ZNF146 / RFU, ZNF330 / Fold change vs veh, ZNF330 / RFU, GPN3 / Fold change vs veh, GPN3 / RFU, C9orf123 / Fold change vs veh, C9orf123 / RFU, N4BP2L2 / Fold change vs veh, N4BP2L2 / RFU, ARFIP1 / Fold change vs veh, ARFIP1 / RFU, FAM179B / Fold change vs veh, FAM179B / RFU, BCL10 / Fold change vs veh, BCL10 / RFU, UHRF1BP1L / Fold change vs veh, UHRF1BP1L / RFU, BET1 / Fold change vs veh, BET1 / RFU, CNOT2 / Fold change vs veh, CNOT2 / RFU, ZNF268 / Fold change vs veh, ZNF268 / Fold change vs veh, ZNF507 / RFU, DGCR2 / Fold change vs veh, DGCR2 / RFU, WDSUB1 / Fold change vs veh, WDSUB1 / Fold change vs veh, HSP90B1 /// MIR3652 / RFU, ADSS / Fold change vs veh, ADSS / RFU, GK / Fold change vs veh, GK / RFU, ZNF148 / Fold change vs veh, ZNF148 / RFU, TAF9 / Fold change vs veh, TAF9 / RFU, SLC1A5 / Fold change vs veh, SLC1A5 / RFU, SLMO2 / Fold change vs veh, SLMO2 / RFU, ABCC4 / Fold change vs veh, ABCC4 / RFU, LOC101060439 /// RAP1B / Fold change vs veh, LOC101060439 /// RAP1B / RFU, RFX7 / Fold change vs veh, RFX7 / RFU, GTPBP10 / Fold change vs veh, GTPBP10 / RFU, CNEP1R1 / Fold change vs veh, CNEP1R1 / RFU, BIVM-ERCC5 /// ERCC5 / Fold change vs veh, BIVM-ERCC5 /// ERCC5 / RFU, ILF3 / Fold change vs veh, ILF3 / RFU 11762660_at / Fold change /veh 11762660_at / RFU VCAN (11757783_s_at) / Fold change /veh VCAN (11757783_s_at) / RFU DDX43 (11728927_at) / Fold change /veh DDX43 (11728927_at) / RFU KRT8 (11758188_x_at) / Fold change /veh KRT8 (11758188_x_at) / RFU NKD1 (11759106_at) / Fold change /veh NKD1 (11759106_at) / RFU SRD5A1 (11742802_a_at) / Fold change /veh SRD5A1 (11742802_a_at) / RFU TPSAB1 /// TPSB2 (11721975_s_at) / Fold change /veh TPSAB1 /// TPSB2 (11721975_s_at) / RFU GSTM3 (11746129_a_at) / Fold change /veh GSTM3 (11746129_a_at) / RFU IL23R (11737362_x_at) / Fold change /veh IL23R (11737362_x_at) / RFU TMEM51 (11727254_a_at) / Fold change /veh TMEM51 (11727254_a_at) / RFU PIWIL2 (11732686_x_at) / Fold change /veh PIWIL2 (11732686_x_at) / RFU ORM1 (11744905_x_at) / Fold change /veh ORM1 (11744905_x_at) / RFU CCDC152 (11743942_at) / Fold change /veh CCDC152 (11743942_at) / RFU ECM1 (11717891_a_at) / Fold change /veh ECM1 (11717891_a_at) / RFU IL23R (11748794_a_at) / Fold change /veh IL23R (11748794_a_at) / RFU TNFAIP8L3 (11732012_x_at) / Fold change /veh TNFAIP8L3 (11732012_x_at) / RFU MBOAT4 (11741988_at) / Fold change /veh MBOAT4 (11741988_at) / RFU 11764193_at / Fold change /veh 11764193_at / RFU TMEM53 (11763286_at) / Fold change /veh TMEM53 (11763286_at) / RFU MAGEB2 (11727129_at) / Fold change /veh MAGEB2 (11727129_at) / RFU TMEM200A (11744735_a_at) / Fold change /veh TMEM200A (11744735_a_at) / RFU CCDC152 (11751479_a_at) / Fold change /veh CCDC152 (11751479_a_at) / RFU FAM211A (11726209_a_at) / Fold change /veh FAM211A (11726209_a_at) / RFU RGS16 (11746705_a_at) / Fold change /veh RGS16 (11746705_a_at) / RFU VCAN (11755009_s_at) / Fold change /veh VCAN (11755009_s_at) / RFU RHOB (11743442_s_at) / Fold change /veh RHOB (11743442_s_at) / RFU RGS16 (11720943_a_at) / Fold change /veh RGS16 (11720943_a_at) / RFU RGS16 (11720944_at) / Fold change /veh RGS16 (11720944_at) / RFU, VPS4B / Fold change vs veh, VPS4B / RFU, CREB1 / Fold change vs veh, CREB1 / RFU, DNAJC13 / Fold change vs veh, DNAJC13 / RFU, GNAQ / Fold change vs veh, GNAQ / RFU, CDK5R1 / Fold change vs veh, CDK5R1 / RFU, ZRANB3 / Fold change vs veh, ZRANB3 / RFU, CUL4A / Fold change vs veh, CUL4A / RFU, CCNY / Fold change vs veh, CCNY / RFU, UFL1 / Fold change vs veh, UFL1 / RFU, COG3 / Fold change vs veh, COG3 / RFU, DIAPH2 / Fold change vs veh, DIAPH2 / RFU, SKA2 / Fold change vs veh, SKA2 / RFU, AFF3 / Fold change vs veh, AFF3 / RFU, LMF1 / Fold change vs veh, LMF1 / RFU, IPO11 / Fold change vs veh, IPO11 / RFU, DFFB / Fold change vs veh, DFFB / RFU, FOXP1 / Fold change vs veh, FOXP1 / RFU, CARD8 / Fold change vs veh, CARD8 / RFU, STRN3 / Fold change vs veh, STRN3 / RFU, ADK / Fold change vs veh, ADK / RFU, RASSF2 / Fold change vs veh, RASSF2 / RFU, WIPF1 / Fold change vs veh, WIPF1 / RFU, LARP1B / Fold change vs veh, LARP1B / RFU, RASA1 / Fold change vs veh, RASA1 / RFU, RB1 / Fold change vs veh, RB1 / RFU, PPFIA1 / Fold change vs veh, PPFIA1 / RFU, MAT2A / Fold change vs veh, MAT2A / RFU, CCT5 / Fold change vs veh, CCT5 / RFU, WDR92 / Fold change vs veh, WDR92 / RFU, CUX1 / Fold change vs veh, CUX1 / RFU, TTC7A / Fold change vs veh, TTC7A / RFU, TMEM135 / Fold change vs veh, TMEM135 / RFU, DEPTOR / Fold change vs veh, DEPTOR / RFU, CPM / Fold change vs veh, CPM / RFU, DNAJB6 / Fold change vs veh, DNAJB6 / RFU, CACNA2D3 / Fold change vs veh, CACNA2D3 / RFU, DTX4 / Fold change vs veh, DTX4 / RFU, TFCP2 / Fold change vs veh, TFCP2 / RFU, GMCL1 /// GMCL1P1 / Fold change vs veh, GMCL1 /// GMCL1P1 / RFU, AEBP2 / Fold change vs veh, AEBP2 / RFU, SNHG1 /// SNORD22 /// SNORD25 /// SNORD26 /// SNORD27 /// SNORD28 /// SNORD29 /// SNORD31 / Fold change vs veh, SNHG1 /// SNORD22 /// SNORD25 /// SNORD26 /// SNORD27 /// SNORD28 /// SNORD29 /// SNORD31 / Fold change (Aza/veh), C12orf56 (ProbeSet 11735607_a_at) / Fold change (ACY-1035/veh), C12orf56 (ProbeSet 11735607_a_at) / Fold change (Aza/veh), FGFR1OP (ProbeSet 11751329_s_at) / Fold change (ACY-1035/veh), FGFR1OP (ProbeSet 11751329_s_at) / Fold change (Aza/veh), VPS36 (ProbeSet 11739960_a_at) / Fold change (ACY-1035/veh), VPS36 (ProbeSet 11739960_a_at) / RFU SYPL1 (11715823_x_at) / Fold change /veh SYPL1 (11715823_x_at) / RFU IGFBP7 (11715501_s_at) / Fold change /veh IGFBP7 (11715501_s_at) / RFU REEP3 (11722064_at) / Fold change /veh REEP3 (11722064_at) / RFU IGLL1 (11728026_x_at) / Fold change /veh IGLL1 (11728026_x_at): dose or concentration left out as unconfirmed",
  "conditions": "MV-4-11 cells, 48 hours",
  "data": [
    {"smiles": "Nc1ccc(-c2cccs2)cc1NC(=O)c1ccc2c(c1)cc(C1CC1)n2CCN1CCOCC1", "note": "[ACY-1035]", "values": [
      {"measurement": "Fold change /veh RASL12 (11751679_a_at)", "result": 1.18}
    ]}
  ]
}
